Consider seven compounds from US11938137B2, “Lipid prodrugs of mycophenolic acid and uses thereof” (PureTech LYT, Inc., priority 2017, dated 2024).

Bounds are passed on as bounds.

Data set [1] can be described thus: In vitro release of MPA from prodrugs in plasma supplemented with lipoprotein lipase (LPL). The class given is in vitro ADME, rat. The note with it: for Percentage MPA release at 60 min in LPL supplemented rat plasma: n = 3 unless specified otherwise; for monoglyceride (MG) peak: after 180 min, rat plasma supplemented with LPL. On the procedure: The percentage of MPA released at 60 minutes in LPL-supplemented rat plasma was also determined for selected compounds. […] The designation “**” indicates a release % of >25% to 50%. The designation “***” indicates a release % of >50% to 75%. The designation “****” indicates a release % of >75%.
In order to probe the release of free drug from TG prodrugs in the systemic circulation, prodrugs were incubated with plasma (rat, mouse, dog, pig or human) supplemented with lipoprotein lipase (LPL, 200 IU/ml). LPL is a key enzyme required for the hydrolysis of lipoprotein associated TG in the systemic circulation and is therefore expected to be a key contributor to lipolysis of the re-esterified drug-TG construct in plasma, largely via liberation of fatty acids in the sn-1 and the sn-3 position of the TG-mimetic, prior to drug release from the 2′ position via esterase hydrolysis. LPL is […] is tethered to the luminal surface of vascular endothelial cells under physiological conditions. In the current in vitro studies, plasma was therefore supplemented with LPL to better reflect the in vivo situation. To start hydrolysis, 10 μl of LPL solution (10,000 IU/ml) was added to a mixture of 10 μl of prodrug solution (1 mg/ml dissolved in acetonitrile) and 500 μl of blank plasma. The mixture was incubated at 37° C. Samples (20 μl) of the incubation solution were taken at 0, 5, 15, 30, 60, 90, 120 and 180 minutes post-incubation and added to 180 μl of MeCN to stop lipolysis. The mixture was vortexed and centrifuged at 4500×g for 5 minutes to precipitate proteins prior to analysis. The supernatant was analyzed by HPLC-MS/MS for the potential products (MG form, acid form, and free drug) of prodrug hydrolysis.

Data set [2] can be described thus: Prodrug lymph node study in mice (free MPA in mesenteric and peripheral lymph nodes). The class given is in vivo, mouse. The note with it: oral multiple dose study (2 times daily for 2 days, samples on 3rd day). The source says: This experiment included a single and multiple dose study.
A short description of data set [3]: Lymphatic transport assay in mesenteric lymph-duct cannulated rats. The class given is in vivo, rat. The note with it: class symbols. On the procedure: In order to assess the lymphatic transport of disclosed lipid prodrugs in rats, the mesenteric lymph ducts of the rats used in this study were cannulated to allow continual collection of mesenteric lymph. Lipid formulations containing the compound of interest were then administered to the animals, lymph was collected, and drug concentrations in the lymph samples were quantified.
Lipid-based formulations of the compounds of the invention or control compounds were prepared as previously described (Trevaskis, N. L. et al., Pharmaceutical Research, 2005, 22(11), 1863-1870, WO 2016/023082, and WO 2017/041139, hereby incorporated by reference.
In brief, either 1 or 2 mg of test prodrug, 40 mg oleic acid and 25 mg Tween 80 were mixed in a glass vial and incubated at 37° C. for 12-18 h to equilibrate. An aqueous phase consisting of 5.6 ml phosphate buffered saline (PBS, pH 7.4) was subsequently added to the lipid phase (MPA was dissolved in PBS for the preparation of MPA containing formulations) and the formulation emulsified by ultrasonication with a Misonix XL 2020 ultrasonic processor (Misonix, Farmingdale, NY, USA) equipped with a 3.2-mm microprobe tip running at 30% of the maximal amplitude of 240 μm and a frequency of 20 kHz for 2 min at room temperature. Doses for administering to more than one animal can be prepared in one batch by suitably increasing the quantities given above. Drug/prodrug concentrations in all formulations were verified using HPLC-MS.
Male Sprague-Dawley (SD) rats were selected for the lymphatic transport studies. Rats (typically 240-320 g) were maintained on a standard diet and fasted overnight with free access to water prior to experiments.
Anesthetized rats were placed on a heated pad at 37° C. and cannulas inserted into the duodenum (for formulation administration and rehydration), mesenteric lymph duct (for lymph collection), and carotid artery (in cases where blood collection was conducted). Post-surgery, rats were re-hydrated for 0.5 h via intraduodenal infusion of normal saline at 2.8 mL/h. The lipid formulations were infused into the duodenum at 2.8 mL/h for 2 h after which, normal saline was infused at 2.8 mL/h for the remainder of the experiment. Lymph was continuously collected for up to 8 h into pre-weighed Eppendorf tubes containing 10 μL of 1,000 IU/mL heparin. The collection tubes were changed hourly and lymph flow was measured gravimetrically. Aliquots of hourly lymph samples were stored at −20° C. prior to assay.
Drug concentration in lymph is expressed as total drug and includes free drug and drug associated with different glycerides. Lymph samples are first treated with a lipase or other appropriate conditions to liberate free active agent prior to measurement of active agent levels in the lymph. Treatment with a lipase or other hydrolysis conditions liberates free active agent from any corresponding re-esterified glycerides. Porcine pancreatic lipase is appropriate for this purpose. Alternatively, hydrolysis with 0.5 M NaOH may be used. For MPA “phenol” prodrugs (i.e. prodrugs linked to the triglyceride at the aromatic —OH group of MPA), hydrolysis was performed with 0.5 M NaOH except for the lymph samples collected from 3 rats in the group of compound I-20 (MPA-O-C12α′βMe-TG), which were hydrolyzed by porcine pancreatic lipase.
Transport of compounds into lymph during each hourly collection period was calculated from the product of the volume of lymph collected and the measured concentrations in lymph. For fluorescently-labelled compounds such as a BDP-conjugate, the concentrations of total compound may be measured by fluorescence spectroscopy without hydrolysis.
The results of the lymphatic transport assays are summarized in Table 2, below, and FIGS. 1-19. Table 2 summarizes lymphatic transport of total MPA related compound (% of administered dose) following intraduodenal infusion to anaesthetised, mesenteric lymph-duct cannulated rats. […]

The conditions of data set [4]: cited from earlier work.
Where [5] appears, read: total MPA related compound, intraduodenal infusion, anesthetised mesenteric lymph-duct cannulated rats.

Consider `CCCCCCCCCCCCCCCC(=O)OCC(COC(=O)CCCCCCCCCCCCCCC)OC(=O)CC/C(C)=C/Cc1c(O)c2c(c(C)c1OC)COC2=O` [I-34, MPA-2-TG], for which the “Percentage MPA release at 60 min in LPL supplemented rat plasma” value (“Percentage MPA release at 60 min” for short) in data set [1] is given as “*** (a release % of >50% to 75%)”. For the same compound, the “concentrations of free MPA in mesenteric lymph nodes compared with MPA” value in data set [2] is on record as “Much higher concentrations”. Further, the “Cumulative lymphatic transport % dose (Mean ± SD, or Range if n = 2)” value in data set [3] (setting [5]) was “A (greater than 10% (>10%))”. With `CCCCCCCCCCC(=O)O[C@H]1CC[C@H]2[C@@H]3CCC4=CC(=O)CC[C@]4(C)[C@H]3CC[C@]12C` [testosterone undecanoate], in data set [4], the “bioavailability of testosterone after oral administration of the undecanoate ester” value is recorded as below 5%. As for `CCCCCCCCCCCCCCCC(=O)OCC(COC(=O)CCCCCCCCCCCCCCC)OC(=O)CC(C)CCCCCCCC(C)C(=O)Oc1c(C/C=C(\C)CCC(=O)OC)c(OC)c(C)c2c1C(=O)OC2` (stereo not shown) [I-20], in data set [1], the “Percentage MPA release at 60 min” value was “*** (a release % of >50% to 75%)” and the “monoglyceride (MG) peak” value is “almost completely disappeared”. Moreover, the “Cumulative lymphatic transport % dose (Mean ± SD, or Range if n = 2)” value in data set [3] (setting [5]) was “A (greater than 10% (>10%))”.

Regarding `CCCCCCCCCCCCCCCC(=O)OCC(COC(=O)CCCCCCCCCCCCCCC)OC(=O)CC(C)CCCCCCCC(C)C(=O)OCCCCC(=O)Oc1c(C/C=C(\C)CCC(=O)OC)c(OC)c(C)c2c1C(=O)OC2` (stereo not shown) [I-22, (E)-12-(1,3-Bis(palmitoyloxy)propan-2-yl) 1-(5-((6-methoxy-5-(6-methoxy-3-methyl-6-oxohex-2-en-1-yl)-7-methyl-3-oxo-1,3-dihydroisobenzofuran-4-yl)oxy)-5-oxopentyl) 2,10-dimethyldodecanedioate], in data set [1], the “Percentage MPA release at 60 min” value is recorded as “*** (a release % of >50% to 75%)” and the “monoglyceride (MG) peak” value is recorded as “almost completely disappeared”. Also, the “Cumulative lymphatic transport % dose (Mean ± SD, or Range if n = 2)” value in data set [3] (setting [5]) is listed as “A (greater than 10% (>10%))”. With `CCCCCCCCCCCCCCCC(=O)OCC(COC(=O)CCCCCCCCCCCCCCC)OC(=O)CCC(=O)Oc1c(C/C=C(\C)CCC(=O)OC)c(OC)c(C)c2c1C(=O)OC2` [I-17], the “Cumulative lymphatic transport % dose (Mean ± SD, or Range if n = 2)” value in data set [3] (setting [5]) was “C (less than 1% and greater than 0.24% (<1% and >0.24%))”. For the compound `CCCCCCCCCCCCCCCC(=O)OCC(COC(=O)CCCCCCCCCCCCCCC)OC(=O)CCCCCCCCCCC(=O)Oc1c(C/C=C(\C)CCC(=O)OC)c(OC)c(C)c2c1C(=O)OC2` [I-30, (E)-1-(1,3-bis(palmitoyloxy)propan-2-yl) 12-(6-methoxy-5-(6-methoxy-3-methyl-6-oxohex-2-en-1-yl)-7-methyl-3-oxo-1,3-dihydroisobenzofuran-4-yl) dodecanedioate], the “Cumulative lymphatic transport % dose (Mean ± SD, or Range if n = 2)” value in data set [3] (setting [5]) is “A (greater than 10% (>10%))”.

In the case of `CCCCCCCCCCCCCCCC(=O)OCC(COC(=O)CCCCCCCCCCCCCCC)OC(=O)CCCCCCCCCCCOC(=O)CC/C(C)=C/Cc1c(O)c2c(c(C)c1OC)COC2=O` [I-37, (E)-2-((12-((6-(4-hydroxy-6-methoxy-7-methyl-3-oxo-1,3-dihydroisobenzofuran-5-yl)-4-methylhex-4-enoyl)oxy)dodecanoyl)oxy)propane-1,3-diyl dipalmitate], the “Cumulative lymphatic transport % dose (Mean ± SD, or Range if n = 2)” value in data set [3] (as E2 but dose 1 mg/rat) is “A (greater than 10% (>10%))”.
